In ChEMBL document CHEMBL1938302, “Synthesis of novel histamine H4 receptor antagonists” (Bioorg Med Chem Lett, 2012):
Values joined by “and” are separate entries in the source; they are usually repeats but may differ in a detail not shown here. Equal entries are not always repeated. Active and inactive are the calls of the source. No cut-off for these calls is given here.

Columns and labels:
Histamine H4 receptor [1] = molecular target: T1, Histamine H4 receptor (Homo sapiens, UniProt Q9H3N8); experiment: Antagonist activity at human histamine H4 receptor expressed in HEK293 cells assessed as rev inhibition of forskolin-stimulated cAMP accumulation by CRE-betalactamase reporter gene assay; assay type: functional, cell-based
Histamine H4 receptor [2] = molecular target: T1, Histamine H4 receptor; experiment: Displacement of [3H]histamine from human recombinant histamine H4 receptor expressed in CHO cells coexpressing Ga15 by radioligand filtration binding assay; assay type: cell-based
[3] = Chemical stability of the compound in methanol; assay type: physicochemical
Histamine H3 receptor = Histamine H3 receptor (Homo sapiens, UniProt Q9Y5N1); experiment: Binding affinity to human histamine H3 receptor
[4] = Half life in rat at 10 mg/kg, sc; assay type: ADME, organism-based; parameters: dose 10 mg/kg, route subcutaneous; conditions: in vivo
Rattus norvegicus [5] = experiment: Clearance in rat at 10 mg/kg, sc; assay type: ADME, organism-based; parameters: dose 10 mg/kg, route subcutaneous; conditions: in vivo
[6] = Metabolic stability in human liver microsomes; assay type: ADME, Microsome; conditions: read-out: Stability
Rattus norvegicus [7] = experiment: Volume of distribution in rat at 10 mg/kg, sc; assay type: ADME, organism-based; parameters: dose 10 mg/kg, route subcutaneous; conditions: in vivo
[8] = Half life in rat at 1 mg/kg, iv; assay type: ADME, organism-based; parameters: dose 1 mg/kg, route intravenous; conditions: in vivo
[9] = Volume of distribution in rat at 1 mg/kg, iv; assay type: ADME, organism-based; parameters: dose 1 mg/kg, route intravenous; conditions: in vivo
Rattus norvegicus [10] = experiment: Clearance in rat at 1 mg/kg, iv; assay type: ADME, organism-based; parameters: dose 1 mg/kg, route intravenous; conditions: in vivo
[11] = Metabolic stability in rat liver microsomes; assay type: ADME, Microsome; conditions: read-out: Stability
[12] = Oral bioavailability in rat; assay type: ADME, organism-based; conditions: in vivo
Rattus norvegicus [13] = experiment: Volume of distribution in rat at 3 mg/kg, sc; assay type: ADME, organism-based; parameters: dose 3 mg/kg, route subcutaneous; conditions: in vivo
[14] = Half life in rat at 3 mg/kg, sc; assay type: ADME, organism-based; parameters: dose 3 mg/kg, route subcutaneous; conditions: in vivo
[15] = Half life in rat; assay type: ADME, organism-based; conditions: in vivo

Histamine H3 receptor, sequence (Q9Y5N1 whole entry): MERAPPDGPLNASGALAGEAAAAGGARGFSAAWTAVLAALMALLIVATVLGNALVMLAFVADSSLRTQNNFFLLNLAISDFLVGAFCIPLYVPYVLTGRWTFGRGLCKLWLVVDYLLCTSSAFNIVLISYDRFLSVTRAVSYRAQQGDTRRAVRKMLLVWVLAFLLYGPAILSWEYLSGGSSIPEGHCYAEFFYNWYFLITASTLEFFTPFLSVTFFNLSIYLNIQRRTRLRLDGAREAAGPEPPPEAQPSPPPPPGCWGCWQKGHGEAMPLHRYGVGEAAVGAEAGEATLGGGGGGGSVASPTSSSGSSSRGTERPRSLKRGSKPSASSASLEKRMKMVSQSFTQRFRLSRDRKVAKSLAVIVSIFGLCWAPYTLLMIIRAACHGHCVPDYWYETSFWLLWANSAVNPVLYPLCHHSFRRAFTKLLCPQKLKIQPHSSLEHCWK

Row | SMILES | Ki (Histamine H4 receptor [1]) [nM] | Ki (Histamine H4 receptor [2]) [nM] | Stability [3] | Ki (Histamine H3 receptor) | also measured
1 | Cc1c(F)ccc2nc(C(=N)N3C[C@H]4CN(C)C[C@H]4C3)[nH]c12 | 9.3 | 4.6 | Unstable |  | 
2 | CN1C[C@@H]2CN(C(=N)c3nc4ccccc4[nH]3)C[C@@H]2C1 | 12.4 | 6.5 | Unstable | 3810 nM | 
3 | CN1CCN(C(=O)c2cc3cccnc3[nH]2)CC1 | > 29900 | 3100 |  | 36600 nM | 
4 | CN1CCN(C(=O)c2cn3ccncc3n2)CC1 | > 20000 | 20100 |  |  | 
5 | CN1C[C@@H]2CN(C(=N)c3nc4c(F)c(F)ccc4[nH]3)C[C@@H]2C1 |  | 49 | Unstable |  | 
6 | CN1C[C@@H]2CN(C(=O)c3cc4cc(Cl)cnc4[nH]3)C[C@@H]2C1 |  | 83 |  |  | 
7 | CN1C[C@@H]2CN3C(c4nc5cc(F)c(F)cc5[nH]4)=NC[C@H]3[C@@H]2C1 |  |  | Stable |  | inhibition (Histamine H4 receptor [1]): inactive; inhibition (Histamine H4 receptor [2]): inactive
8 | Cc1c(F)ccc2nc(C(=O)N3C[C@H]4CN(C)C[C@H]4C3)[nH]c12 | 97 | 52 |  |  | microsomal CLint [11]: 214 µL/min/mg; microsomal CLint [6]: < 7 µL/min/mg
9 | CN1C[C@@H]2CN(C(=N)c3nc4cc(F)c(F)cc4[nH]3)C[C@@H]2C1 | 17.2 | 9.5 | Unstable | 3090 nM | half-life [8]: 660 min; bioavailability [12]: 20%; microsomal CLint [6]: < 7 µL/min/mg; Vd [9]: 48 L/kg; clearance (Rattus norvegicus [10]): 31 mL/min/kg
10 | CN1C[C@@H]2CN(C(=O)c3nc4cc(Cl)ccc4[nH]3)C[C@@H]2C1 | 218 | 129 |  |  | microsomal CLint [11]: 36 µL/min/mg; microsomal CLint [6]: < 7 µL/min/mg
11 | CN1C[C@@H]2CN(C(=O)c3cc4ccc(Cl)nc4[nH]3)C[C@@H]2C1 |  | 2090 |  |  | 
12 | CN1C[C@@H]2CN(C(=O)c3cc4cc(Cl)ccc4[nH]3)C[C@@H]2C1 |  |  |  | 8750 nM | microsomal CLint [6]: < 7 µL/min/mg
13 | CN1C[C@@H]2CN(C(=O)c3cc4cccnc4[nH]3)C[C@@H]2C1 |  | 973 |  |  | 
14 | O=C(c1nc2cc(Cl)ccc2[nH]1)N1C[C@H]2CNC[C@H]2C1 | 8180 | 5080 |  |  | 
15 | Clc1ccc2[nH]c(C3=NCCN3)nc2c1 |  |  | Stable |  | inhibition (Histamine H4 receptor [1]): inactive; inhibition (Histamine H4 receptor [2]): inactive

Now from value to compound, other results behind:

Row | Ki (Histamine H4 receptor [1]) [nM] | Ki (Histamine H4 receptor [2]) [nM] | Stability [3] | Ki (Histamine H3 receptor) | SMILES | also measured
16 | 4490 | 2670 |  |  | CC(C)N1C[C@H]2CN(C(=O)c3nc4cc(Cl)ccc4[nH]3)C[C@H]2C1 | 
17 | 3300 | 1960 |  |  | CCN1C[C@@H]2CN(C(=O)c3nc4cc(Cl)ccc4[nH]3)C[C@@H]2C1 | 
18 | 134 | 74 |  |  | CN1C[C@@H]2CN(C(=O)c3nc4ccc(F)c(F)c4[nH]3)C[C@@H]2C1 | 
19 |  |  |  | 20000 nM | CN1CCN(C(=O)c2nc3cc(Cl)ccc3[nH]2)CC1 | half-life [4]: 42 min; clearance (Rattus norvegicus [5]): 700 mL/min/kg; microsomal CLint [6]: 19 µL/min/mg; Vd (Rattus norvegicus [7]): 23 L/kg
20 | 145 |  |  | 15500 nM | CN1C[C@@H]2CN(C(=O)c3nc4cc(F)ccc4[nH]3)C[C@@H]2C1 | half-life [8]: 42 min; microsomal CLint [6]: < 7 µL/min/mg; Vd [9]: 6.1 L/kg; clearance (Rattus norvegicus [10]): 161 mL/min/kg
21 | 20 | 70 | Unstable | > 20000 nM | CN1C[C@@H]2CN(C(=N)c3nc4c(F)c(F)c(F)cc4[nH]3)C[C@@H]2C1 | 
22 |  |  |  | 15300 nM and > 20000 nM | CN1CCN(C(=O)c2cc3cc(Cl)ccc3[nH]2)CC1 [JNJ-7777120] | Vd (Rattus norvegicus [13]): 2.3 L/kg; half-life [14]: 12 min; half-life [15]: 42 min
23 | 56 |  | Unstable |  | CN1C[C@@H]2CN(C(=N)c3nc4cc(Cl)ccc4[nH]3)C[C@@H]2C1 | 
24 | 189 | 102 |  |  | CN1C[C@@H]2CN(C(=O)c3nc4ccccc4[nH]3)C[C@@H]2C1 | 
25 | 236 |  |  | 17900 nM | CN1C[C@@H]2CN(C(=O)c3nc4cc(F)c(F)cc4[nH]3)C[C@@H]2C1 | half-life [8]: 48 min; microsomal CLint [11]: 40 µL/min/mg; microsomal CLint [6]: < 7 µL/min/mg; clearance (Rattus norvegicus [10]): 58 mL/min/kg
26 | 9.1 | 4.6 | Unstable | 1190 nM | CN1C[C@@H]2CN(C(=N)c3nc4cc(F)ccc4[nH]3)C[C@@H]2C1 | 
27 | > 11400 | 3170 |  | 28600 nM | CN1CCN(C(=O)c2cn3cc(Cl)ccc3n2)CC1 | 
